Results from ChEMBL document CHEMBL3751730, “Synthesis and in vitro antitumor evaluation of dihydroartemisinin-cinnamic acid ester derivatives” (Eur J Med Chem, 2016).

How the values were obtained:
[1] = Antiproliferative activity against human SGC7901 cells after 72 hrs by MTT assay; format: functional, cell-based; conditions: SGC-7901, 72 h
[2] = Selectivity index, ratio of IC50 for human L02 cells to IC50 for human A549 cells; format: functional
[3] = Antiproliferative activity against human MDA-MB-435S cells after 72 hrs by MTT assay; format: functional, cell-based
[4] = Antiproliferative activity against human PC3 cells after 72 hrs by MTT assay; format: functional, cell-based; conditions: PC-3, 72 h
[5] = Cytotoxicity against human L02 cells after 72 hrs by MTT assay; format: cell-based; conditions: L02, 72 h
A549 = test: Antiproliferative activity against human A549 cells after 72 hrs by MTT assay; format: functional, cell-based; conditions: A549, 72 h
[6] = Drug degradation at 2 to 4 mg at 210 to 220 degC by thermogravimetric analysis in the presence of nitrogen gas; format: physicochemical; conditions: for degraded: in vivo, read-out: Drug degradation
[7] = Chemical stability of the compound at 2 to 4 mg at 25 to 300 degC by differential scanning […] analysis in the presence of nitrogen gas; format: physicochemical

| Structure (SMILES) | IC50 [1] | Ratio IC50 [2] | IC50 [3] | IC50 [4] | IC50 [5] | IC50 (A549) | degraded [6] | Stability [7] | Stability [6] |
| --- | --- | --- | --- | --- | --- | --- | --- | --- | --- |
| O=c1[nH]cc(F)c(=O)[nH]1 [FLUOROURACIL] | 11.9 µM | 3.83 | 15.2 µM | 42.5 µM | 25.9 µM | – | – | – | – |
| COc1ccccc1/C=C/C(=O)O[C@@H]1O[C@@H]2O[C@@]3(C)CC[C@H]4[C@H](C)[C@H](OC(=O)/C=C/c5ccccc5OC)C[C@@H]([C@H]1C)[C@@]24OO3 | 46.4 µM | – | 52.3 µM | 11.5 µM | – | 2.55 µM | – | – | – |
| C[C@@H]1[C@H](OC(=O)/C=C/c2ccc(Br)cc2)C[C@H]2[C@@H](C)[C@H](OC(=O)/C=C/c3ccc(Br)cc3)O[C@@H]3O[C@@]4(C)CC[C@@H]1[C@]32OO4 | 35.8 µM | – | > 100 µM | 19.7 µM | – | 35.3 µM | – | – | – |
| C[C@@H]1[C@H](OC(=O)/C=C/c2c(Cl)cccc2Cl)C[C@H]2[C@@H](C)[C@H](OC(=O)/C=C/c3c(Cl)cccc3Cl)O[C@@H]3O[C@@]4(C)CC[C@@H]1[C@]32OO4 | 60.8 µM | – | > 100 µM | > 100 µM | – | > 100 µM | – | – | – |
| C[C@@H]1[C@H](OC(=O)/C=C/c2ccc(Cl)cc2)C[C@H]2[C@@H](C)[C@H](OC(=O)/C=C/c3ccc(Cl)cc3)O[C@@H]3O[C@@]4(C)CC[C@@H]1[C@]32OO4 | 21.3 µM | – | 58.3 µM | 6.76 µM | – | 1.5 µM | 1% | Stable | – |
| COc1ccc(/C=C/C(=O)O[C@@H]2O[C@@H]3O[C@@]4(C)CC[C@H]5[C@H](C)[C@H](OC(=O)/C=C/c6ccc(OC)c(OC)c6OC)C[C@@H]([C@H]2C)[C@@]35OO4)c(OC)c1OC | 19.6 µM | 34.88 | 16.6 µM | 2.95 µM | 57.9 µM | 1.66 µM | – | – | – |
| COc1ccc(/C=C/C(=O)O[C@@H]2O[C@@H]3O[C@@]4(C)CC[C@H]5[C@H](C)[C@H](O)C[C@@H]([C@H]2C)[C@@]35OO4)cc1 | > 100 µM | – | 87.1 µM | > 100 µM | – | > 100 µM | – | – | – |
| C[C@@H]1[C@H](OC(=O)/C=C/c2cccc(Cl)c2)C[C@H]2[C@@H](C)[C@H](OC(=O)/C=C/c3cccc(Cl)c3)O[C@@H]3O[C@@]4(C)CC[C@@H]1[C@]32OO4 | 12 µM | – | 22.4 µM | 11.1 µM | – | 2.72 µM | – | – | – |
| C[C@@H]1[C@H](OC(=O)CCc2ccccc2)C[C@H]2[C@@H](C)[C@H](OC(=O)CCc3ccccc3)O[C@@H]3O[C@@]4(C)CC[C@@H]1[C@]32OO4 | 87.8 µM | – | > 100 µM | 20.5 µM | – | 43.2 µM | – | – | – |
| C[C@@H]1[C@H](OC(=O)/C=C/c2ccc(F)cc2)C[C@H]2[C@@H](C)[C@H](OC(=O)/C=C/c3ccc(F)cc3)O[C@@H]3O[C@@]4(C)CC[C@@H]1[C@]32OO4 | > 100 µM | – | > 100 µM | > 100 µM | – | > 100 µM | – | – | – |
| C[C@@H]1[C@H](O)C[C@H]2[C@@H](C)[C@H](OC(=O)/C=C/c3ccc(Br)cc3)O[C@@H]3O[C@@]4(C)CC[C@@H]1[C@]32OO4 | > 100 µM | – | 84.5 µM | > 100 µM | – | > 100 µM | – | – | – |
| C[C@H]1[C@@H](O)O[C@@H]2O[C@@]3(C)CC[C@H]4[C@H](C)CC[C@@H]1[C@@]24OO3 [ARTENIMOL] | > 100 µM | 1.81 | 21.9 µM | > 100 µM | 146 µM | 80.4 µM | – | – | Unstable |
| C[C@@H]1[C@H](O)C[C@H]2[C@@H](C)[C@H](OC(=O)/C=C/c3ccccc3F)O[C@@H]3O[C@@]4(C)CC[C@@H]1[C@]32OO4 | > 100 µM | – | 47.1 µM | 89.6 µM | – | 92.7 µM | – | – | – |
| Cc1ccc(/C=C/C(=O)O[C@@H]2O[C@@H]3O[C@@]4(C)CC[C@H]5[C@H](C)[C@H](OC(=O)/C=C/c6ccc(C)cc6)C[C@@H]([C@H]2C)[C@@]35OO4)cc1 | > 100 µM | – | > 100 µM | 87.2 µM | – | > 100 µM | – | – | – |
| COc1ccccc1/C=C/C(=O)O[C@@H]1O[C@@H]2O[C@@]3(C)CC[C@H]4[C@H](C)[C@H](O)C[C@@H]([C@H]1C)[C@@]24OO3 | > 100 µM | – | 74.1 µM | 74.9 µM | – | > 100 µM | – | – | – |
| COc1cccc(/C=C/C(=O)O[C@@H]2O[C@@H]3O[C@@]4(C)CC[C@H]5[C@H](C)[C@H](OC(=O)/C=C/c6cccc(OC)c6)C[C@@H]([C@H]2C)[C@@]35OO4)c1 | 16.2 µM | – | 18.2 µM | 43.9 µM | – | 0.8 µM | 1% | Stable | – |
| C[C@@H]1[C@H](OC(=O)/C=C/c2ccccc2F)C[C@H]2[C@@H](C)[C@H](OC(=O)/C=C/c3ccccc3F)O[C@@H]3O[C@@]4(C)CC[C@@H]1[C@]32OO4 | > 100 µM | – | 18.8 µM | 12.5 µM | – | 4.66 µM | – | – | – |

| Structure (SMILES) | IC50 [1] | Ratio IC50 [2] | IC50 [3] | IC50 [4] | IC50 [5] | IC50 (A549) | degraded [6] | Stability [7] | Stability [6] |
| --- | --- | --- | --- | --- | --- | --- | --- | --- | --- |
| C[C@@H]1[C@H](O)C[C@H]2[C@@H](C)[C@H](OC(=O)/C=C/c3cccc(Cl)c3)O[C@@H]3O[C@@]4(C)CC[C@@H]1[C@]32OO4 | > 100 µM | – | 95.9 µM | > 100 µM | – | > 100 µM | – | – | – |
| COc1ccc(/C=C/C(=O)O[C@@H]2O[C@@H]3O[C@@]4(C)CC[C@H]5[C@H](C)[C@H](O)C[C@@H]([C@H]2C)[C@@]35OO4)c(OC)c1OC | > 100 µM | – | 69.9 µM | > 100 µM | – | 40.1 µM | – | – | – |
| C[C@@H]1[C@H](OC(=O)/C=C/c2ccc(C(F)(F)F)cc2)C[C@H]2[C@@H](C)[C@H](OC(=O)/C=C/c3ccc(C(F)(F)F)cc3)O[C@@H]3O[C@@]4(C)CC[C@@H]1[C@]32OO4 | 39.4 µM | – | 67.7 µM | 43.5 µM | – | 5.08 µM | – | – | – |
| COc1ccc(/C=C/C(=O)O[C@@H]2O[C@@H]3O[C@@]4(C)CC[C@H]5[C@H](C)[C@H](OC(=O)/C=C/c6ccc(OC)cc6)C[C@@H]([C@H]2C)[C@@]35OO4)cc1 | 28.3 µM | – | 41.5 µM | 9.58 µM | – | 7.01 µM | – | – | – |
| C[C@@H]1[C@H](O)C[C@H]2[C@@H](C)[C@H](OC(=O)CCc3ccccc3)O[C@@H]3O[C@@]4(C)CC[C@@H]1[C@]32OO4 | > 100 µM | – | > 100 µM | > 100 µM | – | > 100 µM | – | – | – |
| COc1cccc(/C=C/C(=O)O[C@@H]2O[C@@H]3O[C@@]4(C)CC[C@H]5[C@H](C)[C@H](O)C[C@@H]([C@H]2C)[C@@]35OO4)c1 | > 100 µM | – | > 100 µM | > 100 µM | – | > 100 µM | – | – | – |
| C[C@@H]1[C@H](O)C[C@H]2[C@@H](C)[C@H](OC(=O)/C=C/c3ccc(F)cc3)O[C@@H]3O[C@@]4(C)CC[C@@H]1[C@]32OO4 | > 100 µM | – | > 100 µM | > 100 µM | – | > 100 µM | – | – | – |
| COc1ccc(/C=C/C(=O)O[C@@H]2O[C@@H]3O[C@@]4(C)CC[C@H]5[C@H](C)[C@H](O)C[C@@H]([C@H]2C)[C@@]35OO4)cc1OC | > 100 µM | – | 61 µM | > 100 µM | – | 28.9 µM | – | – | – |
| C[C@@H]1[C@H](OC(=O)/C=C/c2ccccc2)C[C@H]2[C@@H](C)[C@H](OC(=O)/C=C/c3ccccc3)O[C@@H]3O[C@@]4(C)CC[C@@H]1[C@]32OO4 | 12.8 µM | – | 18 µM | 36 µM | – | 4.42 µM | 1% | Stable | – |
| C[C@@H]1[C@H](O)C[C@H]2[C@@H](C)[C@H](OC(=O)/C=C/c3ccccc3Cl)O[C@@H]3O[C@@]4(C)CC[C@@H]1[C@]32OO4 | > 100 µM | – | > 100 µM | > 100 µM | – | > 100 µM | – | – | – |
| C[C@@H]1[C@H](O)C[C@H]2[C@@H](C)[C@H](OC(=O)/C=C/c3ccc([N+](=O)[O-])cc3)O[C@@H]3O[C@@]4(C)CC[C@@H]1[C@]32OO4 | > 100 µM | – | > 100 µM | > 100 µM | – | > 100 µM | – | – | – |
| C[C@@H]1[C@H](O)C[C@H]2[C@@H](C)[C@H](OC(=O)/C=C/c3ccccc3)O[C@@H]3O[C@@]4(C)CC[C@@H]1[C@]32OO4 | > 100 µM | – | 76.3 µM | > 100 µM | – | > 100 µM | – | – | – |
| C[C@@H]1[C@H](OC(=O)/C=C/c2ccc([N+](=O)[O-])cc2)C[C@H]2[C@@H](C)[C@H](OC(=O)/C=C/c3ccc([N+](=O)[O-])cc3)O[C@@H]3O[C@@]4(C)CC[C@@H]1[C@]32OO4 | 18.8 µM | – | > 100 µM | 10.7 µM | – | > 100 µM | – | – | – |
| C[C@@H]1[C@H](O)C[C@H]2[C@@H](C)[C@H](OC(=O)/C=C/c3ccc(Cl)cc3)O[C@@H]3O[C@@]4(C)CC[C@@H]1[C@]32OO4 | > 100 µM | – | 98.6 µM | > 100 µM | – | > 100 µM | – | – | – |
| C[C@@H]1[C@H](O)C[C@H]2[C@@H](C)[C@H](OC(=O)/C=C/c3ccc(C(F)(F)F)cc3)O[C@@H]3O[C@@]4(C)CC[C@@H]1[C@]32OO4 | 85.7 µM | – | > 100 µM | > 100 µM | – | > 100 µM | – | – | – |
| C[C@@H]1[C@H](OC(=O)/C=C/c2ccccc2Cl)C[C@H]2[C@@H](C)[C@H](OC(=O)/C=C/c3ccccc3Cl)O[C@@H]3O[C@@]4(C)CC[C@@H]1[C@]32OO4 | > 100 µM | – | > 100 µM | 76.2 µM | – | 96.2 µM | – | – | – |
| Cc1ccc(/C=C/C(=O)O[C@@H]2O[C@@H]3O[C@@]4(C)CC[C@H]5[C@H](C)[C@H](O)C[C@@H]([C@H]2C)[C@@]35OO4)cc1 | > 100 µM | – | > 100 µM | > 100 µM | – | > 100 µM | – | – | – |
